BindingDB's records for doi:10.1021/acsmedchemlett.7b00245 (University of Iowa, 2017)

Test: Activation of BTN3A1 in human PBMC-derived Vgamma9Vdelta2 T cells assessed as induction of interleukin 2 stimulated cell proliferation by measuring increase in CD3 positive cells incubated for 3 days followed by 11 days incubation post compound wash out with subsequent stimulation with IL-2 every 3 days measured after 14 days by flow cytometr
Work on `COP(=O)(CC/C=C(\C)CO)Oc1cccc2ccccc12` (configuration not stated) yielded an EC50 of 5500 nM.
`C/C(=C\CCP(=O)(COC(=O)C(C)(C)C)Oc1cccc2ccccc12)CO` (configuration not stated) showed an EC50 of 0.79 nM.
`C/C(=C\CCP(=O)(COC(=O)C(C)(C)C)OCOC(=O)C(C)(C)C)CO` (configuration not stated) showed an EC50 of 5.4 nM.
`C/C(=C\CCP(=O)(O)Oc1cccc2ccccc12)CO` showed an EC50 of 610 nM.
With `C/C(=C\CCP(=O)(O)Oc1ccccc1)CO` the EC50 was 870 nM.
With `COP(=O)(CC/C=C(\C)CO)Oc1ccccc1` (configuration not stated) the EC50 was 33000 nM.
Work on `C/C(=C\CCP(=O)(COC(=O)C(C)(C)C)Oc1ccccc1)CO` (configuration not stated) yielded an EC50 of 14 nM.
